In US6060310A, “Transcription factor decoy and tumor growth inhibitor” (priority 1997, dated 2000):

Columns and labels:
[1] = test system: CRE-directed transcription in MCF7 cells; assay: Transient transcription assay, somatostatin Δ-71 SS-CAT reporter; type: cell-based, human; details: for effect on CAT activity / CRE-directed transcription: intact cells, transient transcription assay
Description: The CRE oligonucleotide successfully interfered with the CRE-directed transcription in intact cells. To analyze the effect of CRE oligonucleotide in CRE-directed transcription, a transient transcription assay was performed using a reporter plasmid, somatostatin Δ-71 (CPE-containing promoter)-CAT (chloramphenicol acetyltransferase) fusion gene (Montminy et al., Proc. Natl. Acad. Sci. 83, 6682 [1986]). MCF7 cells were transfected with 5 μg of somatostatin-chloramphenicol acetyltransferase fusion gene (Δ-71 SS-CAT plasmid) and 4 μg of CRE (i.e., the 24-mer described in Example 1) or control oligonucleotide by the use of transfection reagent N-[1-(2,3-Dioleoyloxy)propyl]-N,N,N-trimethylammonium methysulfate (DOTAP). After 5 hours, fresh medium was added, and the cells were harvested at 48 to 72 hours, then assayed for CAT activity. Some samples were also treated with forskolin (10 μM), an compound with adenyl cyclase activating properties (i.e., a compound that increases intracellular cAMP concentrations), for the final 24 hours. Cell lysates were prepared as described by Gorman (Gorman, High efficiency gene transfer into mammalian cells, DNA Cloning, Vol II, pp 143-165, IRL press, Oxford, England [1985]). Lysates (75 μg of protein) were incubated with 0.4 μCi of [^14 C]chloramphenicol, 0.53 mM acetyl-CoA, and 250 mM Tris-HCl, pH 7.8 for 90 minutes at 37° C. Under these conditions, CAT activity was linear with time. Reaction products were analyzed by thin-layer chromatography (Gorman, supra).

[2] = test system: cancer cells: MCF7, LNCaP, A549, OVCAR 8, LS174T, KB, MCF7-TH, HCT-15; assay: Cancer cell growth in vitro (cell counts); type: cell-based, human
Description: (§1) Cells (0.25-1×10^5 /well) were plated in a 6-well plate containing the growth medium at 37° C. The 24-mer-CRE palindrome oligonucleotide (i.e., as described in Example 1) or two-base mismatched control oligonucleotide (i.e., as described in Example 1) was added, one day after seeding, to duplicate wells at varying concentrations. To increase the delivery of oligonucleotides into the cell, transfection reagent DOTAP was added along with the oligonucleotides. Saline treated (untreated), DOTAP treated (0 concentration), CRE, or CRE control oligonucleotide treated cells were harvested after 4 days of treatment, and cell numbers were counted in duplicate by a Coulter Counter. […] In this figure, lines with closed circles represent cells treated with the 24-mer-CRE palindrome oligonucleotide, while lines with open boxes represent cells treated with the control, mismatch oligonucleotide.

[3] = test system: CRE-protein complex (CRE DNA-binding proteins such as 43 kDa CREB); assay: Mobility shift assay of CRE DNA-protein complex formation in nuclear extracts of treated cells; type: cell-based, human; details: cells treated 150 nM for 2 days; MCF7, MCF10A and LNCaP; versus saline treated cells
Description: Cells were treated with saline (i.e., control cells), the CRE 24-mer (150 nM for 2 days), or a control oligonucleotide and nuclear extracts were prepared using the method of Dignam (Dignam et al., Nucleic Acid Res. 11, 1475 [1983]). The control oligonucleotide was 5'-[…]-3' (SEQ ID NO: 8), which is a copy of the CRE 24-mer with two mismatched bases included in each consensus sequence motif (i.e., it will not bind as well to transcription factors as will the consensus sequence oligonucleotide). Nuclear extracts were obtained from the cells and were analyzed by a mobility shift assay to compare the amount of CRE-protein bound complex between treated, untreated, and control samples. The DNA binding assay was performed by a method modified from that of Fried and Crothers (Fried and Crothers, Nucleic Acid Res. 9, 6506 [1981]). Briefly, nuclear extracts (10 μg protein) were pre-incubated with poly(dI-dC).cndot. poly (dI-dC) (1 μg), DTT (0.3 mM), and binding buffer (12 mM Tris pH 7.9, 2 mM MgCI2, 60 mM KCl, 0.12 mM EDTA, and 12% glycerol) with or without antiserum (2-4 μl) for 30 min at 4° C. ^32 P-labeled oligonucleotide (double-stranded CRE triplet, 5'-[…]-3'; SEQ ID NO:12) was then added and the reaction mixtures were incubated for 10 min at 37° C. The reaction mixtures were then separated on a 4% polyacrylamide gel at 200 V for 1.5 hours. The gel was dried and autoradiographed. […]

[4] = Cellular uptake of 32P-labeled oligonucleotide; type: in vitro ADME, human
Description: To examine the efficacy of cellular incorporation of the CRE oligonucleotides, we incubated ^32 P-labeled samples of CRE-palindromeoligonucleotide and control oligonucleotide with MCF7 and MCF10A cells. Cell-associated radioactivity was quantified. Within 5 hrs, about 10% of the total input oligonucleotide accumulated in the cell and the incorporation continued to rise thereafter reaching 20-25% maximum levels at 24 hr of oligonucleotide incubation. The amounts and the rates of the incorporation of oligonucleotide were similar between MCF7 and MCF10A cells and between the CRE-decoy oligonucleotide and control oligonucleotide.

[5] = test system: normal cells MCF-10A and L-132; assay: Normal cell growth in vitro (cell counts); type: cell-based, human; details: MCF-10A and L-132, 4 days of treatment
Description: as §1

[6] = test system: HCT-15 human MDR colon carcinoma; assay: Tumor growth in vivo, HCT-15 xenograft; set-up: species or system athymic mice; details: 5x/week, 4 weeks
Description: HCT-15 human MDR colon carcinoma tumor cells (2×10^6 cells) were inoculated subcutaneously into the left flank of athymic mice. The CRE or control oligonucleotide was injected intraperitoneally into mice at 0.01-0.1 mg/0.1 ml saline/mouse, daily, 5×/week for 4 weeks, when tumor size reached 30-50 mg ~10 days after cell inoculation. Tumor volumes were obtained from daily measurements of the longest and shortest diameters and calculated by the formula, 4/3πr^3 where r=(length+width)/4.

[7] = test system: OVCAR8 cells; assay: Cell and nuclear morphology (Giemsa, Hoechst 33258), apoptosis; type: cell-based, human; details: OVCAR 8
Excerpt: After staining, the whole cells were visualized under an inverted microscope at ×240. […] The nuclear morphology of cells was visualized by a fluorescence microscope (Olympus BH2) at ×2600.

[8] = test system: bcl-2 protein in MCF-10A cells; assay: Bcl-2 protein level by western blot; type: cell-based, human; details: MCF-10A normal cells
Description: (§2) Bcl-2 protein levels were measured by standard western blotting techniques known in the art using Anti-bcl-2 antibody.

[9] = test system: bcl-2 protein in MCF7 cells; assay: Bcl-2 protein level by western blot; type: cell-based, human; details: 150 nM, 4 days
Description: as §2

[10] = test system: protein kinase A (PKA) in cultured ovarian cancer cells; assay: PKA activity of cell extracts by column chromatography; type: cell-based; details: treated versus untreated ovarian cancer cells
Description: (§3) Cultured ovarian cancer cells were treated with and without CRE decoy oligonucleotide using the methods of Example 1 below. Extracts were analyzed by column chromatography for PKA activity.

[11] = test system: protein kinase A (PKA) in HS68 cells; assay: as above; type: cell-based, human; details: treated versus untreated HS68 cells
Description: as §3

[12] = test system: normal human mammary epithelial, lung epithelial and human newborn foreskin fibroblast (HS68) cell lines; assay: Growth of normal cell lines; type: cell-based
[13] = summary in description, concentration not given

Substance	effect on CAT activity / CRE-directed transcription [1]	growth inhibition ([2]; 150 nM, separate experiments)	growth inhibition [2, 13]	formation of the CRE-protein complex [3]	changes in cell morphology and apoptotic nuclei [7]	bcl-2 level [8]	bcl-2 level [9]	also measured
5'-GCTGACGTCGGCCTGACGTCAGC-3' (chemistry not given here) [SEQ ID NO:3, non-palindromic hairpin forming CRE oligonucleotide]	interfered with CRE-directed transcription							
5'-TGACGGCATGACGGCATGACGGCA-3' (chemistry not given here)		30%	30%					
5'-TGACGTCA TGACGTCA TGACGTCA-3' (TGACGTCATGACGTCATGACGTCA; chemistry not given here) [24-mer CRE oligonucleotide, transcription factor decoy]				marked decrease	appearance of apoptotic nuclei	did not alter	markedly reduced	inhibition of the CRE-directed transcription ([1]; 4 μg oligonucleotide with 5 μg Δ-71 SS-CAT, DOTAP, versus Δ-71 CAT alone): greater than 90%; maximum level of oligonucleotide incorporation ([4]; 24 hr of incubation): 20-25%; total input oligonucleotide accumulated in the cell ([4]; within 5 hrs): about 10%; IC50 ([2]; 4 days of treatment, with DOTAP, read-out: IC50, growth inhibition of cancer cells): 100 to 150 nM; growth of normal cells [5]: unaffected; toxicity ([6]; 0.01 or 0.1 mg/mouse i.p. daily): without causing toxicity; inhibition of tumor growth ([6]; 0.01 or 0.1 mg/mouse i.p. daily, versus saline treated tumors): greater than 85%; PKA activity peaks (Type-1 and Type-2) [10]: no peaks; PKA activity [11]: did not show any differences; growth of normal cell lines [12]: not affected
5'-TGCCGTCATGCCGTCATGCCGTCA-3' (chemistry not given here) [24-mer CRE-hairpin sense oligonucleotide]	strongly inhibited	70%	70-80%					effect on CAT activity / CRE-directed transcription ([1]; listed as SEQ ID NO:10): strong inhibition
5'-TGTGGTCATGTGGTCATGTGGTCA-3' (DNA, backbone and methylation of C not given here) [reference compound]	no inhibitory effect			same or similar intensity band	not observed	no effect	no effect	growth inhibitory effect ([2]; 4 days of treatment, with DOTAP): no growth inhibitory effect; tumor growth inhibitory effect ([6]; i.p. daily): no growth inhibitory effect
24-mer CRE-hairpin sense and antisense oligonucleotides in combination: two complementary hairpin-forming oligonucleotides combined, producing a cruciform structure (sense TGCCGTCATGCCGTCATGCCGTCA; antisense TGACGGCATGACGGCATGACGGCA; two hairpin-forming strands combined into cruciform structure, further chemistry not given here)		over 80%	over 80%					
